Among the test systems are SF-295; PC-3; CAKI-1; HL-60; U-251; OVCAR-5; RPMI-8226; HCT-15; HT-29; SF-268; MCF7; SW-620; NCI-H460; T47D; HOP-92; IGROV-1; MDA-MB-231; SNB-19; SR.
What all share (assay): growth of human tumour cells (NCI), 48 h

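These data come from cells grown in 96-well plates and exposed to compound for 48 hours at five concentrations. GI50 marks 50% less growth.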 Activity calls are given as the source filed them. Rule as the data show it: active = GI50 up to about 1.1 µM and inactive = higher.

With `NS(=O)(=O)c1cc(C(=O)O)c(O)c2ccccc12`, the GI50 in the assay with SF-295, with PC-3, in the assay with CAKI-1, in the assay with HL-60, in the assay on U-251 and in the assay on OVCAR-5 was > 100 µM (inactive) each time. The GI50 is > 100 µM (inactive) with RPMI-8226; greater than 100 µM in the assay with HCT-15; > 100 µM (inactive) in the assay on HT-29; > 100 µM (inactive) in the assay with SF-268; > 100 µM (inactive) with MCF7; > 100 µM (inactive) with SW-620. In addition, the GI50 in the assay on NCI-H460, in the assay on T47D, with HOP-92, with IGROV-1, in the assay on MDA-MB-231 and with SNB-19 was > 100 µM (inactive) throughout. Moreover, the GI50 in the assay on SR was > 100 µM (inactive).
Regarding `Cc1ncc(C/N=C/c2ccc(Cl)cc2)c(N)n1`, the GI50 in the assay with SF-295, in the assay on PC-3, in the assay with CAKI-1, in the assay with HL-60, in the assay on U-251 and with OVCAR-5 was > 100 µM (inactive) throughout. Besides, the GI50 was > 100 µM (inactive) in the assay on RPMI-8226; greater than 100 µM with HCT-15; > 100 µM (inactive) in the assay on HT-29; > 100 µM (inactive) in the assay on SF-268; > 100 µM (inactive) in the assay on MCF7; > 100 µM (inactive) in the assay with SW-620. Further, the GI50 with NCI-H460, in the assay on T47D, in the assay with HOP-92, in the assay with IGROV-1, in the assay with MDA-MB-231 and with SNB-19 was > 100 µM (inactive) each time. In addition, the GI50 in the assay with SR was > 100 µM (inactive).
For the compound `CCCC(CCC(N)=O)(CCC(N)=O)[N+](=O)[O-]`, the GI50 in the assay with SF-295, with PC-3, with CAKI-1, with HL-60, with U-251 and in the assay on OVCAR-5 was > 100 µM (inactive) in each case. Moreover, the GI50 is > 100 µM (inactive) with RPMI-8226; greater than 100 µM in the assay with HCT-15; > 100 µM (inactive) with HT-29; > 100 µM (inactive) with SF-268; > 100 µM (inactive) with MCF7; > 100 µM (inactive) with SW-620. Besides, the GI50 in the assay on NCI-H460, in the assay with T47D, in the assay on HOP-92, in the assay with IGROV-1, in the assay on MDA-MB-231 and with SNB-19 was > 100 µM (inactive) throughout. The GI50 with SR is > 100 µM (inactive).
In the case of `C1=C(CC2=C[P+](c3ccccc3)(c3ccccc3)C=C(c3ccccc3)O2)OC(c2ccccc2)=C[P+]1(c1ccccc1)c1ccccc1`, the GI50 in the assay on SF-295 is 0.566 µM (active); with PC-3, 0.337 µM (active); in the assay on CAKI-1, 2.21 µM (inactive); in the assay with HL-60 it was 0.188 µM (active); with U-251 it was 0.269 µM (active); in the assay on OVCAR-5, 1.04 µM (active). The GI50 was 0.18 µM (active) in the assay on RPMI-8226; 1.63 µM in the assay with HCT-15; 0.358 µM (active) in the assay on HT-29; 0.362 µM (active) with SF-268; 0.392 µM (active) with MCF7; 0.367 µM (active) in the assay on SW-620. The GI50 was 0.577 µM (active) with NCI-H460; 0.17 µM (active) in the assay on T47D; 0.166 µM (active) in the assay on HOP-92; 0.184 µM (active) in the assay with IGROV-1; 0.313 µM (active) with MDA-MB-231; 0.328 µM (active) with SNB-19. Moreover, the GI50 in the assay on SR is 0.26 µM (active).
As to `O=[N+]([O-])c1ccc(C(Nc2ccccc2)P(c2ccccc2)c2ccccc2)cc1` (configuration not stated), the GI50 was 44.7 µM (inactive) in the assay on SF-295; > 100 µM (inactive) with PC-3; > 100 µM (inactive) in the assay on CAKI-1; > 100 µM (inactive) in the assay on HL-60; > 100 µM (inactive) in the assay on U-251; > 100 µM (inactive) in the assay with OVCAR-5. Further, the GI50 is greater than 100 µM with HCT-15; > 100 µM (inactive) in the assay with HT-29; > 100 µM (inactive) with SF-268; > 100 µM (inactive) in the assay on MCF7; > 100 µM (inactive) with SW-620; > 100 µM (inactive) in the assay on NCI-H460. Further, the GI50 in the assay on T47D, in the assay with HOP-92, in the assay on IGROV-1, in the assay on MDA-MB-231, in the assay with SNB-19 and with SR was > 100 µM (inactive) each time.
Regarding `C[C@]12CCC3=NCCN3C1=CC[C@@H]1[C@@H]2CC[C@@]2(C)[C@H]1CC[C@]2(C)O`, the GI50 in the assay with SF-295 is 20.7 µM (inactive); in the assay on PC-3, 62.5 µM (inactive); with CAKI-1, > 100 µM (inactive); in the assay on U-251 it was 87.3 µM (inactive); in the assay with OVCAR-5 it was > 100 µM (inactive); in the assay with RPMI-8226 it was 15 µM (inactive). Besides, the GI50 in the assay on HCT-15 was 53.2 µM; in the assay with HT-29, 16.1 µM (inactive); with SF-268, 76.7 µM (inactive); with MCF7, 61.9 µM (inactive); in the assay with SW-620, 85.1 µM (inactive); with NCI-H460 it was 38.3 µM (inactive). The GI50 with T47D was 87.1 µM (inactive); in the assay with HOP-92 it was 37.2 µM (inactive); with IGROV-1, 39.1 µM (inactive); with MDA-MB-231, > 100 µM (inactive); in the assay with SNB-19, > 100 µM (inactive); with SR, 38.8 µM (inactive).
As for `Cc1cc2nc3c(C#N)c4c(c(-c5ccc(Cl)cc5)n3c2cc1C)CCC4`, the GI50 was 17.2 µM (inactive) in the assay with SF-295; 29.2 µM (inactive) with PC-3; 19.4 µM (inactive) with CAKI-1; 21.4 µM (inactive) in the assay with HL-60; 28.8 µM (inactive) with U-251; 26.5 µM (inactive) in the assay with RPMI-8226. Besides, the GI50 in the assay with HCT-15 was 27.9 µM; with HT-29 it was 21.3 µM (inactive); with SF-268, 24.3 µM (inactive); with MCF7, 33.1 µM (inactive); with SW-620, 30.4 µM (inactive); in the assay on NCI-H460, 43.2 µM (inactive). In addition, the GI50 was 22.3 µM (inactive) in the assay with T47D; 20.3 µM (inactive) with HOP-92; 18.4 µM (inactive) in the assay on IGROV-1; 22.2 µM (inactive) with MDA-MB-231; 20.8 µM (inactive) in the assay on SNB-19; 23.8 µM (inactive) in the assay with SR.
For the compound `COc1ccc(C2Oc3ccc(Cl)cc3C=C2[N+](=O)[O-])cc1` (configuration not stated), the GI50 with SF-295, in the assay with PC-3, in the assay with CAKI-1, in the assay with HL-60, in the assay with U-251 and in the assay on OVCAR-5 was > 100 µM (inactive) throughout. For the same compound, the GI50 in the assay on RPMI-8226 is > 100 µM (inactive); with HCT-15, greater than 100 µM; with HT-29 it was > 100 µM (inactive); in the assay with SF-268, > 100 µM (inactive); in the assay on MCF7, > 100 µM (inactive); in the assay on NCI-H460, > 100 µM (inactive). The GI50 in the assay with T47D, in the assay with IGROV-1, in the assay on MDA-MB-231, with SNB-19 and in the assay with SR was > 100 µM (inactive) each time.
